According to patent publication US6967244B1 (priority 1988, dated 2005):
Entries after “also recorded” stand apart in the source; their conditions may differ. Where two headings read alike, the source gives them in different places.

Experiments:
[1] = target: T1, nAChR formed after the injection of alpha2 and beta2 mRNAs (Rattus norvegicus, UniProt P12389+P12390); format: cell-based
T1 construct: only the HYP16 clone contains an open reading frame for the entire alpha2 protein; expressed in transfected cells; host or cells: Xenopus oocytes injected with in vitro transcribed mRNA
T1 sequence (P12390 25-500): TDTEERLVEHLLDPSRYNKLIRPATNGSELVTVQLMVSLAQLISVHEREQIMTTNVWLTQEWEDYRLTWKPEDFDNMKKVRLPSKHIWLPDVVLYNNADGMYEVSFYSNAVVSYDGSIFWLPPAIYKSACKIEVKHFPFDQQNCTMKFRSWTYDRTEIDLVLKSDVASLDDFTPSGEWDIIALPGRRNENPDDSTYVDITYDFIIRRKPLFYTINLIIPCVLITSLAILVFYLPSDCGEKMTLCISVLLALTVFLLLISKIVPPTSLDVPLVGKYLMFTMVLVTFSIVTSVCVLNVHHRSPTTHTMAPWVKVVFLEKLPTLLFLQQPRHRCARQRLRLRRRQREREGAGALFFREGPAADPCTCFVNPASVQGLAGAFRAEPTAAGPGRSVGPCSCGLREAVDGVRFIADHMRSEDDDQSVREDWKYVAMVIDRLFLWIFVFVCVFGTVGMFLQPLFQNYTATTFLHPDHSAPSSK
T1 sequence (P12389 28-511): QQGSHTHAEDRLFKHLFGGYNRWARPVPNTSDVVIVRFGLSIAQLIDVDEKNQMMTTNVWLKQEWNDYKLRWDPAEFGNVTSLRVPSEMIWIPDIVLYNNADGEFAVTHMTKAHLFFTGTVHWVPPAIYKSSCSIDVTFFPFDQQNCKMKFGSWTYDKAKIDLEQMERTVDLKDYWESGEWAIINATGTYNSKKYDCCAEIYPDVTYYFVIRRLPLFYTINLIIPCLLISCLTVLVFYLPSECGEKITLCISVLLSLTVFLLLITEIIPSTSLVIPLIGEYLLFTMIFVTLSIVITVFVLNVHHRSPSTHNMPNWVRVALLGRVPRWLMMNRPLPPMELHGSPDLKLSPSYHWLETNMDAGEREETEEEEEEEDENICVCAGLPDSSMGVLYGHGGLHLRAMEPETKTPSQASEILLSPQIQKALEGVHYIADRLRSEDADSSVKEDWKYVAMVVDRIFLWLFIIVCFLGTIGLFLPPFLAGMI
Experimental: (§1) Mature Xenopus laevis (Xenopus I, Madison, Wis.) were used as the source of oocytes. Oocytes were treated with 1 mg/ml type II collagenase (Sigma Chemical Co., St. Louis, Mo.) for two hours at room temperature. The ovarian epithelium and follicle cells were then removed by manual dissection. Each oocyte was injected with 0.5 to 5 ng of RNA transcribed and capped with diguanosine triphosphate in vitro, in a 50 nl volume of water. Injected oocytes were incubated in Barth's saline at 20° C. prior to electrophysiological recordings.
(§2) Recordings were obtained from oocytes placed in a groove at the base of a narrow perspex chamber of 0.5 ml volume. Oocytes were perfused at up to 40 ml/min. with a control solution that consisted of 10 mM HEPES (pH 7.2), 115 mM NaCl, 1.8 mM CaCl2 2.5 mM KCl, and […] atropine. Then oocytes were perfused with agonists or antagonists (added to the control perfusing solution), followed by a wash with control solution. Voltage recordings were made with the bridge circuit of the Dagan 8500 voltage clamp unit on oocytes injected 2–7 days previously. The recordings were obtained at room temperature (20–25° C.) with micropipettes filled with 3M KCl. A resting potential more negative than −30 mV was required for inclusion of a particular oocyte in these studies.
The PCX49 clone is derived from the beta2 gene and is believed to encode a non-agonist-binding subunit. (Boulter, et al., 1987; Deneris, et al., 1988). […] We tested whether oocytes injected with either alpha2 (n=22) or beta2 (n=21) mRNA alone would produce a depolarizing response to ACh.

[2] = target: T2, receptor from mouse muscle alpha1, gamma, delta and beta2 mRNAs (Mus musculus, UniProt P02716+P04756+P04760); format: cell-based, mouse/rat
T2 construct: expressed in transfected cells; host or cells: Xenopus laevis oocytes injected with in vitro transcribed capped RNA
T2 sequence (P04760 23-519): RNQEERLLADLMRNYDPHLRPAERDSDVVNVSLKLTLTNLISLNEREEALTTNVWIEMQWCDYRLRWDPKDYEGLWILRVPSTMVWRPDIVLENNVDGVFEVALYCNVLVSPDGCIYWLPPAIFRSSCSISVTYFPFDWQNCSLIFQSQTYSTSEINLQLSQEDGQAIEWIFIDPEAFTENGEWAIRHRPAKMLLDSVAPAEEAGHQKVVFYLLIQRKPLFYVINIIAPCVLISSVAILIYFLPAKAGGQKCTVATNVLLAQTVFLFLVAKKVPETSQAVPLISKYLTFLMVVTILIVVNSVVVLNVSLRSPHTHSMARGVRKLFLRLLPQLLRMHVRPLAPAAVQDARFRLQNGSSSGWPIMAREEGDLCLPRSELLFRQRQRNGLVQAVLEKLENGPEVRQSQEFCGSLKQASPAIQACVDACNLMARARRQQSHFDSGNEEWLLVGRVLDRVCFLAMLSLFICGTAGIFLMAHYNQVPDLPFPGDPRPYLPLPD
T2 sequence (P12390 25-500, further chain): as the sequence (P12390 25-500) above
T2 sequence (P04756 21-457): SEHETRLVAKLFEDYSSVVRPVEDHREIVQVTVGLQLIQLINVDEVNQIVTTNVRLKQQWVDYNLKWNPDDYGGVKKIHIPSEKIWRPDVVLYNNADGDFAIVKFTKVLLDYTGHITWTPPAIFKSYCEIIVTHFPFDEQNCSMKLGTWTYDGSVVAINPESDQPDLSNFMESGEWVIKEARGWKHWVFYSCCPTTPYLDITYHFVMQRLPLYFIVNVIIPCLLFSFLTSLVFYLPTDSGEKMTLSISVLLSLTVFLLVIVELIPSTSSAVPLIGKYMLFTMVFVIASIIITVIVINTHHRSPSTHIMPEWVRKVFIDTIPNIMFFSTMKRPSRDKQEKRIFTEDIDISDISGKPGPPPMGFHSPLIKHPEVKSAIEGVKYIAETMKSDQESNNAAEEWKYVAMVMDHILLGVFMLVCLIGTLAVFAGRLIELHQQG
T2 sequence (P02716 25-520): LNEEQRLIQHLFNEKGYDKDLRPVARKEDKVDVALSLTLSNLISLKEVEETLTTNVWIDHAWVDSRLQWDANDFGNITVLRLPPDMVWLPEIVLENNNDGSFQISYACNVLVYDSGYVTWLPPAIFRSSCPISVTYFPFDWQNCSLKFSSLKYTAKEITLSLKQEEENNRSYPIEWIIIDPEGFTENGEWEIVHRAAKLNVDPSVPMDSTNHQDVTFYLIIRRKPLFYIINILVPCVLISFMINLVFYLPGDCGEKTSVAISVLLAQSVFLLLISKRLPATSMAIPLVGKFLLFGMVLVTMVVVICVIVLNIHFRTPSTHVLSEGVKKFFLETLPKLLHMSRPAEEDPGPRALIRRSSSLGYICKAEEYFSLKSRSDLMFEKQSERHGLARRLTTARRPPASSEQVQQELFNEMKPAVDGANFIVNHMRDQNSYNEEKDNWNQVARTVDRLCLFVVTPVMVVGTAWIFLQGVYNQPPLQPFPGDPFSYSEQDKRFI
Experimental: (§3) To examine this hypothesis, a test was made to determine whether the beta2 subunit could substitute for one of the mouse muscle receptor subunits. This was done by injecting into Xenopus oocytes various combinations of mRNA encoding the beta2 subunit and the muscle receptor subunits (α1, β1, […], and δ).
as §1, §2
Experiment 1: Oocytes taken from the same animal were injected at the same time with equivalent amounts of the indicated mRNA combinations. […] Values presented are means±S.E. (n=6).
Values, presented are means±S.E. (n=5). The complete set of mouse muscle mRNAs were not tested in this experiment.

[3] = target: T3, alpha4 + beta2 neuronal nicotinic acetylcholine receptor (Rattus norvegicus, UniProt P09483+P12390); format: cell-based
T3 construct: linker-coded start (ATG and a few residues from a synthetic EcoRI/HindIII linker) (N); expressed in transfected cells; host or cells: Xenopus laevis oocytes injected with in vitro transcribed capped RNA
T3 sequence (P12390 25-500): as the sequence (P12390 25-500) above
T3 sequence (P09483 31-630): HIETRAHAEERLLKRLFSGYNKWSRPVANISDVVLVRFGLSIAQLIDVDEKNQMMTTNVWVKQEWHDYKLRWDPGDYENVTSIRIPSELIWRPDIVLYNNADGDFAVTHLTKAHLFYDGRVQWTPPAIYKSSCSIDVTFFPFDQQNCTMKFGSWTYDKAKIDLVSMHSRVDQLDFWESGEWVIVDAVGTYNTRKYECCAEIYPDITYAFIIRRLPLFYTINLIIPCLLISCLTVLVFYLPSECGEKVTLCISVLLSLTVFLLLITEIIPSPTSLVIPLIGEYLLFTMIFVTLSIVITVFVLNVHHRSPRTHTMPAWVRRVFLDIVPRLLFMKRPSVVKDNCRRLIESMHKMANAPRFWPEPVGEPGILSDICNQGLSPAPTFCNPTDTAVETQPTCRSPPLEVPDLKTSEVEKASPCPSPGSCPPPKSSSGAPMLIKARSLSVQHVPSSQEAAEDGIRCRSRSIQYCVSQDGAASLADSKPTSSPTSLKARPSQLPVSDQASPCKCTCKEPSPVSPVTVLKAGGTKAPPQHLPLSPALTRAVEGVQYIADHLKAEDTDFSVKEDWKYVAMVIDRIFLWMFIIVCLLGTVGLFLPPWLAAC

[4] = target: T4, alpha3 + beta2 neuronal nicotinic acetylcholine receptor (Rattus norvegicus, UniProt P04757+P12390); format: cell-based
T4 construct: a complete signal peptide and the entire mature protein; expressed in transfected cells; host or cells: Xenopus laevis oocytes injected with in vitro transcribed capped RNA
T4 sequence (P12390 25-500): as the sequence (P12390 25-500) above
T4 sequence (P04757 26-499): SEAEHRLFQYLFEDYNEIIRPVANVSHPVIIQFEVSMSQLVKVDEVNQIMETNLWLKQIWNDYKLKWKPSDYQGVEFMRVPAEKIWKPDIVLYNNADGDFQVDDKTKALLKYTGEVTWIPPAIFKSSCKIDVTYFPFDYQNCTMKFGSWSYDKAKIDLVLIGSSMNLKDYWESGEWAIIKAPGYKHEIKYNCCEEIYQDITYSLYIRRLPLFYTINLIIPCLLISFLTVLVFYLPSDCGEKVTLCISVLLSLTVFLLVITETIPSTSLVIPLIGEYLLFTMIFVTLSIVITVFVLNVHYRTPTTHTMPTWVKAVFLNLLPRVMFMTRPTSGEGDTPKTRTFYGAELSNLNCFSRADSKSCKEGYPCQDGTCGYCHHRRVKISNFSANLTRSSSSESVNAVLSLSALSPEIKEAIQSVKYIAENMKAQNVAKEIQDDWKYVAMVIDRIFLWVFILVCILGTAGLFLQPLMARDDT

PC12 cell receptor = target: T5, PC12 cell receptor (Rattus norvegicus, UniProt P04757); conditions: cited from earlier work
T5 construct: endogenous in cells; host or cells: PC12 (rat pheochromocytoma) cells
T5 sequence (P04757 26-499): as above

[5] = target: mouse muscle nicotinic acetylcholine receptor α1β1γδ (Mus musculus, UniProt P02716+P04756+P04760); format: cell-based
Chain of mouse muscle nicotinic acetylcholine receptor α1β1γδ (P04760 23-519): as the sequence (P04760 23-519) above
Chain of mouse muscle nicotinic acetylcholine receptor α1β1γδ (P09690 24-501, further chain): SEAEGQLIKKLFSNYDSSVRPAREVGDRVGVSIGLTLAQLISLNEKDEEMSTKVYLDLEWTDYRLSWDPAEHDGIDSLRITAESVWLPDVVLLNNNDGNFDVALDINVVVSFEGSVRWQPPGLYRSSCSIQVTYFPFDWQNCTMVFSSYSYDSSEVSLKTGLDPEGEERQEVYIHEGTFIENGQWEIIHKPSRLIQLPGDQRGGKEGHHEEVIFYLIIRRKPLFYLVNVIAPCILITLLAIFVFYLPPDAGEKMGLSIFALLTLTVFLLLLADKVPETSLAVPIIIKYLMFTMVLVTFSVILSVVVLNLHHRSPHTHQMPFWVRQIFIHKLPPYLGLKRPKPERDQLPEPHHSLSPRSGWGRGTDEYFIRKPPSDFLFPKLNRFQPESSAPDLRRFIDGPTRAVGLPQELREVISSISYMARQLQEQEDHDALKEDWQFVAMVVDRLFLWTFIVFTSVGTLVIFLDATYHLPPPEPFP
Chain of mouse muscle nicotinic acetylcholine receptor α1β1γδ (P02716 25-520): as the sequence (P02716 25-520) above
Chain of mouse muscle nicotinic acetylcholine receptor α1β1γδ (P04756 21-457): as the sequence (P04756 21-457) above
Experimental: as §3, §1
Recordings were obtained from oocytes placed in a groove at the base of a narrow perspex chamber of 0.5 ml volume. Oocytes were perfused at up to 40 ml/min. with a control solution that consisted of 10 mM HEPES (pH 7.2), 115 mM NaCl, 1.8 mM CaCl2 2.5 mM KCl, and […] atropine. Then oocytes were perfused with agonists or antagonists (added to the control perfusing solution), followed by a wash with control solution. Voltage recordings were made with the bridge circuit of the Dagan 8500 voltage clamp unit on oocytes injected 2–7 days previously. […]

C[N+](C)(C)CCCCCC[N+](C)(C)C [hexamethonium]
Blockade of the acetylcholine response by antagonist or toxin [1]: could be blocked | Δ (mV) Agonist + Antagonist ([1]; Ach 1 μM + antagonist 100 μM, n=4): +0.4 ± 0.4 mV

CN1CCCC1c1cccnc1 (centres unmarked) [nicotine]
Depolarizing response to nicotine [1]: strong and reproducible depolarizing responses; also recorded: elicited a depolarizing response | Depolarizations elicited by nicotine [2]: depolarizations could be elicited | Depolarizing response to nicotine [3]: strong and reproducible membrane depolarizations; also recorded: depolarizing responses | Depolarizing response to nicotine [4]: strong and reproducible membrane depolarizations; also recorded: depolarizing responses

α-bungarotoxin
Functional block of the receptor by toxin (PC12 cell receptor): neither of these receptors are functionally blocked | Δ, mV After Toxin [1]: +32 ± 2 mV | Block of the receptor by toxin [5]: blocked | Block of the response to acetylcholine [2]: completely blocked | Functional blockade of the acetylcholine response by toxin [3]: resistant | Δ, mV After Toxin [3]: 32.7 ± 6.4 mV | Functional blockade of the acetylcholine response by toxin [4]: neither of these receptors are functionally blocked; also recorded: resistant | Δ, mV After Toxin [4]: 24.8 ± 3.3 mV

COc1cc2c3cc1Oc1cc(ccc1O)C[C@@H]1c4c(cc(OC)c(O)c4Oc4ccc(cc4)C[C@@H]3N(C)CC2)CC[N+]1(C)C [d-tubocurarine]
Blockade of the acetylcholine response by antagonist or toxin [1]: could be blocked | Δ (mV) Agonist + Antagonist ([1]; Ach 5 μM + antagonist 100 μM, n=3): +2.0 ± 0.4 mV | Block of depolarizations ([2]; alpha1, beta2, gamma, delta mRNAs, 100 mM d-tubocurarine): blocked
